Data reported in patent publication US9670227B2, “Thienopyrimidine derivatives, a process for their preparation and pharmaceutical compositions containing them” (LES LABORATOIRES SERVIER, priority 2013, dated 2017).
Where two headings read alike, the source gives them in different places.

What was measured:
[1] = target: Mcl-1 protein (UniProtKB primary accession number: Q07820) (Homo sapiens, UniProt Q07820); experiment: Inhibition of Mcl-1 by fluorescence polarisation, Method 1; type: binding; details: read-out: IC50 (M) Mcl-1 FP
Chain of Mcl-1 protein (Q07820 whole entry): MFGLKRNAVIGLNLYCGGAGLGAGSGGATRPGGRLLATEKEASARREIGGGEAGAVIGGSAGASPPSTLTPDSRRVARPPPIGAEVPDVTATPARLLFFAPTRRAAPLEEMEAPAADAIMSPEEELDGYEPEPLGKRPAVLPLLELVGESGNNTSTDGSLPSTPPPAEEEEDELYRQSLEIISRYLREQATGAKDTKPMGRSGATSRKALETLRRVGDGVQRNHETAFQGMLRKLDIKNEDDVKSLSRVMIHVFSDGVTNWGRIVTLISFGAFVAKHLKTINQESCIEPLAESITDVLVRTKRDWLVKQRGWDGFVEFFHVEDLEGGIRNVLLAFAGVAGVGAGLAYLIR
Method in brief: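 Binding was measured as fluorescence polarisation of a fluorescein-labelled ligand (1 nM) displaced from Mcl-1 (5 nM), both final. Compounds ran as 11-point series with final DMSO at 5%.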

[2] = tested on: H929 multiple myeloma tumour line; experiment: In vitro cytotoxicity, Microculture Tetrazolium Assay; type: cell-based
Procedure: The cytotoxicity studies were carried out on the H929 multiple myeloma tumour line.
The cells are distributed onto microplates and exposed to the test compounds for 48 hours.

[3] = fluorescence polarisation, Method 1, or Method 2
[4] = Homo sapiens, NCI-H929, 48 h, H929 cells, 48 hours exposure, MTT, read-out: IC50 (μM) MTT H929
[5] = fluorescence polarisation test, Method 2 values are underlined in the patent (underlining not visible here)
[6] = H929 cells, 48 hours exposure, MTT, read-out: IC50 (μM) MTT H929

Row | SMILES | IC50 [1, 3] | IC50 [1, 5] | IC50 [2, 4] | IC50 [2, 6] | IC50 ([2]; Homo sapiens, NCI-H929, 48 h, read-out: IC50 (μM) MTT H929, H929 cells, 48 hours exposure, MTT)
1 | COc1ccccc1-c1nccc(COc2ccccc2CC(Oc2ncnc3sc(-c4ccc(OCc5cccc(C)c5)cc4)c(-c4ccc(OCCN5CCN(C)CC5)c(Cl)c4C)c23)C(=O)O)n1 [Example 773, (2R)-2-[((5Sa)-5-{3-chloro-2-methyl-4-[2-(4-methylpiperazin-1-yl)ethoxy]phenyl}-6-{4-[(3-methylbenzyl)oxy]phenyl}thieno[2,3-d]pyrimidin-4-yl)oxy]-3-(2-{[2-(2-methoxyphenyl)pyrimidin-4-yl]methoxy}phenyl)propanoic acid] | 1.25e-09 M |  | 0.017 µM |  | 
2 | COc1ccccc1CC(Oc1ncnc2sc(-c3cccc(C#N)c3)c(-c3ccc(OCCN4CCN(C)CC4)c(Cl)c3C)c12)C(=O)O [Example 548, (2R)-2-{[(5Sa)-5-{3-chloro-2-methyl-4-[2-(4-methylpiperazin-1-yl)ethoxy]phenyl}-6-(3-cyanophenyl)thieno[2,3-d]pyrimidin-4-yl]oxy}-3-(2-methoxyphenyl)propanoic acid] | 1.8e-08 M |  | 0.497 µM |  | 
3 | Cc1c(-c2c(-c3ccc(F)o3)sc3ncnc(OC(Cc4ccccc4OCc4cocn4)C(=O)O)c23)ccc(OCCN2CCN(C)CC2)c1Cl [Example 191, (2R)-2-{[(5Sa)-5-{3-chloro-2-methyl-4-[2-(4-methylpiperazin-1-yl)ethoxy]phenyl}-6-(5-fluorofuran-2-yl)thieno[2,3-d]pyrimidin-4-yl]oxy}-3-[2-(1,3-oxazol-4-ylmethoxy)phenyl]propanoic acid] |  | 6.5e-09 M | 0.063 µM |  | 
4 | CCCCn1nccc1COc1ccccc1CC(Oc1ncnc2sc(-c3ccc(OCCOC)nc3)c(-c3ccc(OCCN4CCN(C)CC4)c(Cl)c3C)c12)C(=O)O [Example 622, (2R)-3-{2-[(1-butyl-1H-pyrazol-5-yl)methoxy]phenyl}-2-[((5Sa)-5-{3-chloro-2-methyl-4-[2-(4-methylpiperazin-1-yl)ethoxy]phenyl}-6-[6-(2-methoxyethoxy)pyridin-3-yl]thieno[2,3-d]pyrimidin-4-yl)oxy]propanoic acid] | 1.1e-08 M |  | 0.109 µM |  | 
5 | CCNC(=O)NCCCOc1ccc(-c2c(CC)sc3ncnc(OC(Cc4ccccc4)C(=O)O)c23)c(C)c1Cl [Example 404, (2R)-2-{[(5Sa)-5-(3-chloro-4-{3-[(ethylcarbamoyl)amino]propoxy}-2-methylphenyl)-6-ethylthieno[2,3-d]pyrimidin-4-yl]oxy}-3-phenylpropanoic acid] | 5.7e-08 M |  | 21.6 µM |  | 
6 | COc1ccccc1C[C@@H](Oc1ncnc2sc(-c3ccco3)c(-c3ccc(OCCN4CCN(C)CC4)c(F)c3C)c12)C(=O)O (single isomer, unassigned) [Example 334] |  | 1.4e-08 M |  |  | 0.968 µM
7 | CNC(=O)COc1ccccc1CC(Oc1ncnc2sc(-c3ccco3)c(-c3ccc(OCCN4CCN(C)CC4)c(Cl)c3C)c12)C(=O)O [Example 218, (2R)-2-{[(5Sa)-5-{3-chloro-2-methyl-4-[2-(4-methylpiperazin-1-yl)ethoxy]phenyl}-6-(furan-2-yl)thieno[2,3-d]pyrimidin-4-yl]oxy}-3-{2-[2-(methylamino)-2-oxoethoxy]phenyl}propanoic acid] |  | 6.5e-09 M | 0.805 µM |  | 
8 | COc1ccccc1CC(Oc1ncnc2sc(-c3csc(Cl)c3)c(-c3ccc(OCCN4CCN(C)CC4)c(Cl)c3C)c12)C(=O)O [Example 570, (2R)-2-{[(5Sa)-5-{3-chloro-2-methyl-4-[2-(4-methylpiperazin-1-yl)ethoxy]phenyl}-6-(5-chlorothiophen-3-yl)thieno[2,3-d]pyrimidin-4-yl]oxy}-3-(2-methoxyphenyl)propanoic acid] | 2e-08 M |  | 0.324 µM |  | 
9 | Cc1c(-c2c(-c3ccc(Cl)o3)sc3ncnc(OC(Cc4ccccc4OCC(F)(F)F)C(=O)O)c23)ccc(OCCN2CCN(C)CC2)c1Cl [Example 365, (2R)-2-{[6-(5-chlorofuran-2-yl)-(5Sa)-5-{3-chloro-2-methyl-4-[2-(4-methylpiperazin-1-yl)ethoxy]phenyl}thieno[2,3-d]pyrimidin-4-yl]oxy}-3-[2-(2,2,2-trifluoroethoxy)phenyl]propanoic acid] |  | 5.9e-09 M | 0.026 µM |  | 
10 | COc1cccc(-c2sc3ncnc(OC(Cc4ccccc4OC)C(=O)O)c3c2-c2ccc(OCCN3CCN(C)CC3)c(Cl)c2C)c1 [Example 554, (2R)-2-{[(5Sa)-5-{3-chloro-2-methyl-4-[2-(4-methylpiperazin-1-yl)ethoxy]phenyl}-6-(3-methoxyphenyl)thieno[2,3-d]pyrimidin-4-yl]oxy}-3-(2-methoxyphenyl)propanoic acid] | 2.4e-08 M |  | 0.177 µM |  | 
11 | Cc1c(-c2c(-c3ccco3)sc3ncnc(OC(Cc4ccccc4OCc4ccnc(C(F)(F)F)n4)C(=O)O)c23)ccc(OCCN2CCN(C)CC2)c1Cl [Example 248, (2R)-2-{[(5Sa)-5-{3-chloro-2-methyl-4-[2-(4-methylpiperazin-1-yl)ethoxy]phenyl}-6-(furan-2-yl)thieno[2,3-d]pyrimidin-4-yl]oxy}-3-(2-{[2-(trifluoromethyl)pyrimidin-4-yl]methoxy}phenyl)propanoic acid] |  | 6.9e-09 M | 0.015 µM |  | 

The next lines start with results.

Row | IC50 [1, 3] | IC50 [1, 5] | SMILES | IC50 [2, 4] | IC50 [2, 6] | IC50 ([2]; Homo sapiens, NCI-H929, 48 h, read-out: IC50 (μM) MTT H929, H929 cells, 48 hours exposure, MTT)
12 |  | 5.5e-09 M | Cc1cnccc1-c1nccc(COc2ccccc2CC(Oc2ncnc3sc(-c4ccc(F)cc4)c(-c4ccc(OCCN(C)C)c(Cl)c4C)c23)C(=O)O)n1 [Example 137, (2R)-2-{[(5Sa)-5-{3-chloro-4-[2-(dimethylamino)ethoxy]-2-methylphenyl}-6-(4-fluorophenyl)thieno[2,3-d]pyrimidin-4-yl]oxy}-3-(2-{[2-(3-methylpyridin-4-yl)pyrimidin-4-yl]methoxy}phenyl)propanoic acid] | 0.007 µM |  | 
13 | 3.5e-09 M |  | CCCCn1nccc1COc1ccccc1CC(Oc1ncnc2sc(-c3cccnc3)c(-c3ccc(OCCN4CCN(C)CC4)c(Cl)c3C)c12)C(=O)O [Example 609, (2R)-3-{2-[(1-butyl-1H-pyrazol-5-yl)methoxy]phenyl}-2-{[(5Sa)-5-{3-chloro-2-methyl-4-[2-(4-methylpiperazin-1-yl)ethoxy]phenyl}-6-(pyridin-3-yl)thieno[2,3-d]pyrimidin-4-yl]oxy}propanoic acid] | 0.063 µM |  | 
14 |  | 3.1e-08 M | Cc1c(-c2c(-c3ccc(F)cc3)sc3ncnc(OC(Cc4ccccc4OCc4cnccn4)C(=O)O)c23)ccc(OC2CCCN(C)C2)c1Cl (single isomer, unassigned) [Example 141, (2R)-2-{[(5Sa)-5-{3-chloro-2-methyl-4-[((3S or R)-1-methylpiperidin-3-yl)oxy]phenyl}-6-(4-fluorophenyl)thieno[2,3-d]pyrimidin-4-yl]oxy}-3-[2-(pyrazin-2-ylmethoxy)phenyl]propanoic acid] |  | 0.27 µM | 
15 |  | 4.4e-08 M | Cc1c(-c2c(-c3ccc(F)cc3)sc3ncnc(OC(Cc4ccccc4OCc4cccc(-c5ccco5)n4)C(=O)O)c23)ccc(OCCN2CCN(C)CC2)c1Cl [Example 11, (2R)-2-{[(5Sa)-5-{3-chloro-2-methyl-4-[2-(4-methylpiperazin-1-yl)ethoxy]phenyl}-6-(4-fluorophenyl)thieno[2,3-d]pyrimidin-4-yl]oxy}-3-(2-{[6-(furan-2-yl)pyridin-2-yl]methoxy}phenyl)propanoic acid] | 0.13 µM |  | 
16 |  | 8.5e-08 M | Cc1c(-c2c(-c3ccc(F)cc3)sc3ncnc(OC(Cc4ccccc4OCc4cnccn4)C(=O)O)c23)ccc(OCC2CCN(C)C2)c1Cl [Example 139, (2R)-2-{[(5Sa)-5-(3-chloro-2-methyl-4-{[(3R)-1-methylpyrrolidin-3-yl]methoxy}phenyl)-6-(4-fluorophenyl)thieno[2,3-d]pyrimidin-4-yl]oxy}-3-[2-(pyrazin-2-ylmethoxy)phenyl]propanoic acid] |  | 0.636 µM | 
17 |  | 1.9e-09 M | Cc1c(-c2c(-c3ccc(F)cc3)sc3ncnc(OC(Cc4ccccc4OCc4cnnn4-c4ccccc4)C(=O)O)c23)ccc(OCCN2CCN(C)CC2)c1Cl [Example 94, (2R)-2-{[(5Sa)-5-{3-chloro-2-methyl-4-[2-(4-methylpiperazin-1-yl)ethoxy]phenyl}-6-(4-fluorophenyl)thieno[2,3-d]pyrimidin-4-yl]oxy}-3-{2-[(1-phenyl-1H-1,2,3-triazol-5-yl)methoxy]phenyl}propanoic acid] | 0.085 µM |  | 
18 | 3.7e-09 M |  | CCCCn1nccc1COc1ccccc1CC(Oc1ncnc2sc(-c3ccc(O)cc3)c(-c3ccc(OCCN4CCN(C)CC4)c(Cl)c3C)c12)C(=O)O [Example 602, (2R)-3-{2-[(1-butyl-1H-pyrazol-5-yl)methoxy]phenyl}-2-{[(5Sa)-5-{3-chloro-2-methyl-4-[2-(4-methylpiperazin-1-yl)ethoxy]phenyl}-6-(4-hydroxyphenyl)thieno[2,3-d]pyrimidin-4-yl]oxy}propanoic acid] | 0.156 µM |  | 
19 |  | 4.3e-09 M | Cc1cscc1-c1nccc(COc2ccccc2CC(Oc2ncnc3sc(-c4ccc(F)cc4)c(-c4ccc(OCCN5CCN(C)CC5)c(Cl)c4C)c23)C(=O)O)n1 [Example 124, (2R)-2-{[(5Sa)-5-{3-chloro-2-methyl-4-[2-(4-methylpiperazin-1-yl)ethoxy]phenyl}-6-(4-fluorophenyl)thieno[2,3-d]pyrimidin-4-yl]oxy}-3-(2-{[2-(4-methylthiophen-3-yl)pyrimidin-4-yl]methoxy}phenyl)propanoic acid] | 0.024 µM |  | 
